Data from patent US10696615B2, “Prenylated hydroxystilbenes” (The University of Sydney, priority 2011, dated 2020).

Tests used:
Assay type in all cases: cell-based, human
UACC-257 = test: NCI in vitro cancer screen, Melanoma; conditions: UACC-257
MDA-MB-468 = test: NCI in vitro cancer screen, Breast Cancer; conditions: MDA-MB-468
SR = test: NCI in vitro cancer screen, Leukemia
HT29 = test: NCI in vitro cancer screen, Colon Cancer; conditions: HT29
K-562 = test: NCI in vitro cancer screen, Leukemia; conditions: K-562
OVCAR-4 = test: NCI in vitro cancer screen, Ovarian Cancer; conditions: OVCAR-4
T-47D = test: NCI in vitro cancer screen, Breast Cancer
HOP-92 = test: NCI in vitro cancer screen, Non-Small Cell Lung Cancer; conditions: HOP-92
OVCAR-8 = test: NCI in vitro cancer screen, Ovarian Cancer; conditions: OVCAR-8
UACC-62 = test: NCI in vitro cancer screen, Melanoma; conditions: UACC-62
NCI-H23 = test: NCI in vitro cancer screen, Non-Small Cell Lung Cancer; conditions: NCI-H23
ADR-RES (NCI/ADR-RES) = test: NCI in vitro cancer screen, Ovarian Cancer; conditions: Homo sapiens, NCI/ADR-RES
SK-MEL-28 = test: NCI in vitro cancer screen, Melanoma; conditions: SK-MEL-28
SK-OV-3 = test: NCI in vitro cancer screen, Ovarian Cancer; conditions: SK-OV-3
M14 = test: NCI in vitro cancer screen, Melanoma; conditions: M14
OVCAR-5 = test: NCI in vitro cancer screen, Ovarian Cancer; conditions: OVCAR-5
HCT-116 = test: NCI in vitro cancer screen, Colon Cancer; conditions: HCT-116
NCI-H460 = test: NCI in vitro cancer screen, Non-Small Cell Lung Cancer; conditions: NCI-H460
SF-295 = test: NCI in vitro cancer screen, CNS Cancer; conditions: SF-295
DU-145 = test: NCI in vitro cancer screen, Prostate Cancer; conditions: DU-145
RPMI-8226 = test: NCI in vitro cancer screen, Leukemia; conditions: RPMI-8226
HOP-62 = test: NCI in vitro cancer screen, Non-Small Cell Lung Cancer; conditions: HOP-62
UO-31 = test: NCI in vitro cancer screen, Renal Cancer; conditions: UO-31
RXF-393 = test: NCI in vitro cancer screen, Renal Cancer; conditions: Homo sapiens, RXF-393
MOLT-4 = test: NCI in vitro cancer screen, Leukemia; conditions: MOLT-4
786-0 = test: NCI in vitro cancer screen, Renal Cancer; conditions: 786-0
SNB-19 = test: NCI in vitro cancer screen, CNS Cancer; conditions: SNB-19
SK-MEL-5 = test: NCI in vitro cancer screen, Melanoma; conditions: SK-MEL-5
HL-60 (TB) = test: NCI in vitro cancer screen, Leukemia; conditions: HL-60 (TB)
LOX IMVI = test: NCI in vitro cancer screen, Melanoma
COLO 205 = test: NCI in vitro cancer screen, Colon Cancer; conditions: COLO 205
[1] = Homo sapiens, read-out: LC50 (the source's name)
[2] = read-out: LC50 (the source's name)

## COc1cc(/C=C/c2cc(O)cc(OC)c2CC=C(C)C)ccc1O [USYDS1, (E)-2-(3-methyl-2-buten-1-yl)-4′,5-dihydroxy-3,3′-dimethoxystilbene]
UACC-257; Homo sapiens
  GI50: 2530 nM
UACC-257; [1]
  CC50: 45.4 µM
UACC-257
  TGI: 17.7 µM
MDA-MB-468; Homo sapiens
  GI50: 360 nM
MDA-MB-468; [1]
  CC50: 33.2 µM
MDA-MB-468
  TGI: 8.37 µM
SR
  TGI: 24.4 µM
SR; Homo sapiens
  GI50: 40 nM
SR; [1]
  CC50: > 100 µM
HT29
  TGI: 15.3 µM
HT29; Homo sapiens, HT-29
  GI50: 4.73 µM
HT29; Homo sapiens, HT-29, read-out: LC50 (the source's name)
  CC50: 44.4 µM
K-562; Homo sapiens, K562
  GI50: 40 nM
K-562; Homo sapiens, K562, read-out: LC50 (the source's name)
  CC50: > 100 µM
K-562
  TGI: 11.7 µM
OVCAR-4; Homo sapiens
  GI50: 580 nM
OVCAR-4; [1]
  CC50: 52 µM
OVCAR-4
  TGI: 18.4 µM
T-47D
  TGI: 19.8 µM
T-47D; Homo sapiens, T47D
  GI50: 720 nM
T-47D; Homo sapiens, T47D, read-out: LC50 (the source's name)
  CC50: 67.4 µM
HOP-92
  TGI: 12.3 µM
HOP-92; Homo sapiens
  GI50: 60 nM
HOP-92; [1]
  CC50: 39.6 µM
OVCAR-8; Homo sapiens
  GI50: 80 nM
OVCAR-8; [1]
  CC50: 50 µM
OVCAR-8
  TGI: 11.7 µM
UACC-62; Homo sapiens
  GI50: 1620 nM
UACC-62; [1]
  CC50: 46.6 µM
UACC-62
  TGI: 18.3 µM
NCI-H23; Homo sapiens
  GI50: 280 nM
  LC50: 62.5 µM
NCI-H23
  TGI: 15.1 µM
ADR-RES (NCI/ADR-RES)
  GI50: 30 nM
ADR-RES (NCI/ADR-RES); [2]
  CC50: 70.7 µM
SK-MEL-28; Homo sapiens
  GI50: 10.9 µM
  LC50: 51.7 µM
SK-MEL-28
  TGI: 23.8 µM
SK-OV-3; Homo sapiens
  GI50: 190 nM
SK-OV-3; [1]
  CC50: 34.7 µM
SK-OV-3
  TGI: 11.6 µM
M14; Homo sapiens
  GI50: 40 nM
M14; [1]
  CC50: 44 µM
M14
  TGI: 13.9 µM
OVCAR-5; Homo sapiens
  GI50: 6 µM
OVCAR-5; [1]
  CC50: 55.3 µM
OVCAR-5
  TGI: 21.4 µM
HCT-116
  TGI: 11.1 µM
HCT-116; Homo sapiens
  GI50: 300 nM
  LC50 (concentration killing 50% of cells): 40.4 µM
NCI-H460; Homo sapiens
  GI50: 230 nM
NCI-H460; [1]
  CC50: 42 µM
NCI-H460
  TGI: 1.38 µM
SF-295; Homo sapiens
  GI50: 650 nM
SF-295; [1]
  CC50: 55.7 µM
SF-295
  TGI: 16.2 µM
DU-145
  TGI: 12.7 µM
DU-145; Homo sapiens
  GI50: 60 nM
DU-145; [1]
  CC50: 38.6 µM
RPMI-8226; Homo sapiens
  GI50: 110 nM
RPMI-8226; [1]
  CC50: > 100 µM
RPMI-8226
  TGI: 14.8 µM
HOP-62
  TGI: 16.0 µM
HOP-62; Homo sapiens
  GI50: 440 nM
HOP-62; [1]
  CC50: 42.2 µM
UO-31; Homo sapiens
  GI50: 250 nM
UO-31; [1]
  CC50: 51.3 µM
UO-31
  TGI: 16.0 µM
RXF-393
  GI50: 30 nM
RXF-393; [2]
  CC50: 39.1 µM
MOLT-4; Homo sapiens
  GI50: 430 nM
MOLT-4; [1]
  CC50: 80.2 µM
MOLT-4
  TGI: 12.3 µM
786-0
  TGI: 14.0 µM
786-0; Homo sapiens
  GI50: 480 nM
  LC50 (50% net cell kill): > 100 µM
SNB-19; Homo sapiens
  GI50: 170 nM
SNB-19; [1]
  CC50: 51.5 µM
SNB-19
  TGI: 19.3 µM
SK-MEL-5; Homo sapiens
  GI50: 50 nM
SK-MEL-5; [1]
  CC50: 5.99 µM
SK-MEL-5
  TGI: 0.75 µM
HL-60 (TB)
  TGI: 0.06 µM
HL-60 (TB); Homo sapiens
  GI50: 20 nM
HL-60 (TB); [1]
  CC50: 68.9 µM
LOX IMVI
  TGI: 16.2 µM
LOX IMVI; Homo sapiens
  GI50: 50 nM
LOX IMVI; [1]
  CC50: 58.8 µM
COLO 205
  TGI: 16.1 µM
COLO 205; Homo sapiens
  GI50: 3.86 µM
COLO 205; [1]
  CC50: 42.6 µM
